The text below walks through data of publication PMC9369007 (International Journal of Molecular Sciences, 2022).

Data set [1] deals with MCF-7 cells. Nature of the data set: MTT cytotoxicity assay, MCF-7. To be noted: Homo sapiens, MCF7, 72 h, read-out: In Vitro Cytotoxicity IC50 MCF-7.
Procedure: (§4) The in vitro cytotoxic testing of novel derivatives was performed against different three cancer cell lines, HepG2, MCF-7, and HCT116, using standard MTT assay as previously reported [22, 62, 63, 64].
For the next data set, the system named is HCT116 cells. Kind of data set: MTT cytotoxicity assay, HCT116. To be noted: Homo sapiens, HCT-116, 72 h, read-out: In Vitro Cytotoxicity IC50 HCT116.
The target of a further data set is LSD1 demethylase (Homo sapiens, UniProt O60341). Kind of data set: LSD1 demethylase inhibition assay.
Data set [2] concerns MCF-7 cells. Nature of the data set: Annexin V-FITC/PI dual staining apoptosis assay. In kind it is cell-based, human. As to conditions: MCF-7, 2.0 µM, 24 h. As to the method: This test used the breast MCF-7 cell line to assess the percentage of apoptosis caused by compound 27, in which MCF-7 cells were treated with compound 27 at 2.0 µM concentration for 24 h to measure the percentage of apoptosis induced by compound 27. […] These findings are in line with statistics derived from DNA content.
Each sample’s histogram was separated into four quadrants to show viable (lower left quadrant), necrotic (higher left quadrant), apoptotic (lower right quadrant), and necrotic/late apoptotic (upper right quadrant) cells. The Annexin V Apoptosis Detection Kit is based on the finding that apoptotic cells can transport phosphatidylserine (PS) from the plasma membrane’s inner surface to the cell surface. As a result, the presence of PS on the cell surface is regarded as an important technique for detecting apoptotic cells. PS can be easily detected by labeling with a fluorescent compound of annexin V, a protein with a high affinity for PS, and then analyzing the results by flow cytometry. When annexin V and PI staining are performed simultaneously, the kit can distinguish between apoptosis and necrosis. Only when the plasma membrane is completely damaged may PI enter the cell. This allows early apoptotic cells (negative for PI but positive for PS) to be distinguished from late apoptotic and necrotic cells (positive for both PI and PS). […] Cells were tested using annexin V and PI double-staining flow cytometry, which detect both PS residues and DNA, respectively, to validate the potential to trigger apoptosis. They were then cultured for 24 h before being examined. The tested compound was able to produce considerable levels of cell death in a dose-dependent manner, according to analyses of early and late apoptosis (Table 4, Figure 2 and Figure 3).
(§1) Using the annexin V-FITC and PI apoptosis kit (eBioscience^TM, San Diego, CA, USA), the apoptosis detection was performed. MCF cells were plated onto a six-well plate at a 600,000 cells/mL density and then treated with compound 27 at […] after 24 h of incubation, and the assay was completed as previously described.
The MCF-7 cells were treated with tested compounds 27 for 24 h and stained with annexin V-FITC/PI to detect externalization of PS from cell membrane and analyze apoptotic and necrotic cell population as previously described.

A further data set has as its system HepG2 and MCF-7 cells. Kind of data set: DNA fragmentation, diphenylamine test. In kind it is cell-based, human. As to conditions: 24 h at IC50 value, untreated control about 4.7 ± 0.2%. As to the method: Apoptosis is characterized by DNA fragmentation, which occurs in all stages of the process. The percentage of fragmented DNA released into the cytoplasm from apoptotic nuclei was determined using a diphenylamine test.
DNA fragmentation was quantitatively determined using a diphenylamine (DPA) reagent according to the method of Boraschi and Maurizi.

The next data set addresses T1, hMAO-A (Homo sapiens, UniProt P21397).
T1 sequence (P21397 1-527): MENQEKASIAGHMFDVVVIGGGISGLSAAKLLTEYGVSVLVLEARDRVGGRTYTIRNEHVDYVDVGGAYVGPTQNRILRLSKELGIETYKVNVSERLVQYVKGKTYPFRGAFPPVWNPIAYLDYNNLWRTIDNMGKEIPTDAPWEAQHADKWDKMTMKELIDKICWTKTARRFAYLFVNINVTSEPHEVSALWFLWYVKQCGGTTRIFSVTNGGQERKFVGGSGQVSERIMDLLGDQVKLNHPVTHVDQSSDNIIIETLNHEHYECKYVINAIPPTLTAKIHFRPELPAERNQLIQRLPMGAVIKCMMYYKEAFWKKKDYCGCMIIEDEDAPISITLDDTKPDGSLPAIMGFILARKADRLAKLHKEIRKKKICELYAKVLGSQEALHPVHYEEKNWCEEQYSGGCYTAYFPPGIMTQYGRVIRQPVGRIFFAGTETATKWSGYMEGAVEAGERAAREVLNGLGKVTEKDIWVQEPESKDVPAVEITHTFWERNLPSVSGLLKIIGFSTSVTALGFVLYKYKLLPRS
Nature of the data set: MAO activity screening, hMAO-A. It is filed as biochemical. As to conditions: tyramine at 2 × KM (0.8 mM); two independent experiments. As to the method: (§2) Here, the potent selective compound 27 was screened for measuring target selectivity against high structural similar membrane-bound human hMAO-A and hMAO-B at 10 µM in the presence of tyramine at 2 × KM (0.8 mM for MAO-A and 0.32 mM for MAO-B) (Table 5).
(§3) The coupled assay approach was used to evaluate MAO activity in which the product, H2O2, acts with horseradish peroxidase to convert 10-acetyl-3,7-dihydroxyphenoxazine to the fluorescent resorufin. The percent inhibition was computed from the top and bottom of the resultant curve using the equation for a three-parameter curve in GraphPad Prism v. 4, (Graphstats, New York, NY, USA).

A further data set concerns the target T2, hMAO-B (Homo sapiens, UniProt P27338).
T2 sequence (P27338 1-520): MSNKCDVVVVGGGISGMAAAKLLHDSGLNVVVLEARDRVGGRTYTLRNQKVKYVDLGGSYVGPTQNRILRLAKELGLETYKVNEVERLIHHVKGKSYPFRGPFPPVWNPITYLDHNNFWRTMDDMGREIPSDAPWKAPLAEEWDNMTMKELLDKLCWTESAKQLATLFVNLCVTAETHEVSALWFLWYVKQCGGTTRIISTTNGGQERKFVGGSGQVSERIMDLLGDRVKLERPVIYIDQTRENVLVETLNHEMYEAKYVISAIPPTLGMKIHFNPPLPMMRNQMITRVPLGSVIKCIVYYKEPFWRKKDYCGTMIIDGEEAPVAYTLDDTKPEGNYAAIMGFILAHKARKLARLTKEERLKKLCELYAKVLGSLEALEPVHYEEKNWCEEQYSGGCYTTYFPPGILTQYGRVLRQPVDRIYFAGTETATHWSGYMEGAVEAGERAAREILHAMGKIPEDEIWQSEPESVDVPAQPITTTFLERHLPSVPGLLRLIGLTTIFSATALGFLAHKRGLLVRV
Nature of the data set: MAO activity screening, hMAO-B. It is filed as biochemical. As to conditions: tyramine at 2 × KM (0.32 mM); two independent experiments. How it is done:
as §2, §3

Data set [3] relates to MCF-7 cells. Nature of the data set: Cell cycle analysis by flow cytometry. It is filed as cell-based, human. Set-up: DNA Content %G0-G1 / DNA Content %S / DNA Content %G2-M / DNA Content %Pre G1: dose or concentration left out as unconfirmed. To be noted: MCF-7, 24 h. As to the method: The cell cycle is a series of growth and development processes that culminate in DNA replication and cell division. G1 phase, S phase (synthesis), G2 phase, and M phase are the four different phases. We chose our promising chemical 27 based on the results of the MTT assay (Table 1) to further examine its effect on the apoptotic process and investigate its ability to play an active role in cell cycle progression in MCF-7 cells. MCF-7 cells were treated for 24 h with compound 27 at a concentration of […], and flow cytometry was performed in the presence of annexin V-FITC/PI.
as §1
Cell cycle arrest and distribution was assessed, using the Propidium Iodide Flow Cytometry Kit (ab139418, Abcam, USA, CA, USA), followed by flow cytometry analysis according to the previous methodology.

A short description of the next data set: in vitro. To be noted: human, WI38 normal lung fibroblast cells.
The test system of another data set is HepG2 cells. Nature of the data set: MTT cytotoxicity assay, HepG2. To be noted: Homo sapiens, HepG2, 72 h, read-out: In Vitro Cytotoxicity IC50 HepG2.

Molecules are shown by their SMILES.

Procedure for HCT116 cells: as §4
Procedure for HepG2 cells: as §4
Procedure for LSD1 demethylase: The inhibition of LSD1 activity by our tested compounds was evaluated according to a previously reported procedure [65, 66, 67, 68] and as mentioned in the assay kit in Supplementary Materials.

As for `C=CCNc1nnc(-c2cc(-c3nnc(NCC=C)s3)cc(-c3nnc(NCC=C)s3)c2)s1` [Compound 27, 5,5′,5″-(benzene-1,3,5-triyl)tris(N-allyl-1,3,4-thiadiazol-2-amine)], the IC50 in the data set with MCF-7 cells [1] came out at 1.52 ± 1.02 µM. The IC50 with HCT116 cells is 10.3 ± 0.15 µM. Also, the IC50 against LSD1 demethylase (LSD1 inhibition IC50, as quoted in the docking section) was 0.0464 µM. For the same compound, on LSD1 demethylase (LSD1 inhibitory IC50, Table 2, mean ± S.D., at least three tests), the IC50 was determined as 0.046 ± 0.003 µM. Besides, in the data set with MCF-7 cells [2], the “Apoptosis Early” value amounted to 5.33%, the “Apoptosis Late” value is 20.53%, the “Apoptosis Total” value was determined as 37.11% and the “Enhancement of late apoptosis compared with untreated cells” value worked out at 114 fold. Further, in the data set on MCF-7 cells [2], the Necrosis was determined as 11.25%. Besides, the “Percentage of DNA fragmentation” value in the data set on HepG2 and MCF-7 cells is on record as approximately 23 ± 1.2%. This compound also returned an IC50 at hMAO-A of 87.1 ± 2.36 µM. In addition, the IC50 against hMAO-B is more than 100 µM. Moreover, in the data set with MCF-7 cells [3], the “Comment (cell cycle)” value is “pre G1 Apoptosis and cell cycle arrest at G2-M”; the “DNA Content %G0-G1” value came out at 35.15%; the “DNA Content %G2-M” value was 35.59%; the “DNA Content %Pre G1” value is reported as 37.11%. For the same compound, the “DNA Content %S” value in the data set on MCF-7 cells [3] is 28.26%. Further, the IC50 at 72 h in the data set “in vitro” is more than 85 µM. Moreover, in the data set on HepG2 cells, the half-maximal inhibitory concentration (IC50) came to 24.7 ± 1.01 µM.
